Test results reported in PMC6001238, “Iterative Chemical Engineering of Vancomycin Leads to Novel Vancomycin Analogs With a High in Vitro Therapeutic Index” (Frontiers in Microbiology, 2018).
In brackets after ≈: the same amount, converted by molar mass.

How the values were obtained:
[1] = test system: S. aureus VISA/HIP5827; experiment: MIC, broth microdilution, vancomycin-intermediate S. aureus VISA HIP5827; type: cell-based, Staphylococcus aureus; conditions: for MIC: Staphylococcus aureus VISA/HIP5827, read-out: MIC; for MIC-fold improvement vs. vancomycin: VISA/HIP5827, ratio of MIC of vancomycin and MIC of analogue
How it was run: (§1)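 Controls (ultrapure water; broth not inoculated) were included throughout CLSI-compliant broth microdilution. One condition supplemented analogue or comparator with 10 μM vancomycin, final level.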

[2] = test system: MRSA KS1; experiment: MIC, broth microdilution, MRSA KS1; type: cell-based, Staphylococcus aureus; conditions: for MIC-fold improvement vs. vancomycin: MRSA KS1, ratio of MIC of vancomycin and MIC of analogue; for MIC: Staphylococcus aureus MRSA KS1, read-out: MIC
How it was run: as §1

[3] = test system: E. faecalis VRE 53; experiment: MIC, broth microdilution, vancomycin-resistant E. faecalis VRE 53 (VanA); type: cell-based, Enterococcus faecalis; conditions: for MIC: Enterococcus faecalis VRE 53 (vancomycin-resistant), read-out: MIC; for MIC-fold improvement vs. vancomycin: VRE 53, ratio of MIC of vancomycin and MIC of analogue
How it was run: as §1

[4] = test system: E. faecalis VRE 37; experiment: MIC, broth microdilution, vancomycin-resistant E. faecalis VRE 37 (VanA); type: cell-based, Enterococcus faecalis; conditions: for MIC: Enterococcus faecalis VRE 37 (vancomycin-resistant), read-out: MIC
How it was run: as §1

[5] = test system: E. faecalis VSE 1; experiment: MIC, broth microdilution, vancomycin-sensitive E. faecalis (VSE 1); type: cell-based, Enterococcus faecalis; conditions: for MIC: Enterococcus faecalis VSE 1 (vancomycin-sensitive), read-out: MIC; for MIC-fold improvement vs. vancomycin: VSE 1, ratio of MIC of vancomycin and MIC of analogue
How it was run: as §1

[6] = test system: S. aureus VSSA (ATCC 6538); experiment: MIC, broth microdilution, vancomycin-sensitive S. aureus (VSSA/MSSA, ATCC 6538); type: cell-based, Staphylococcus aureus; conditions: for MIC: Staphylococcus aureus VSSA, read-out: MIC; for MIC-fold improvement vs. vancomycin: VSSA, ratio of MIC of vancomycin and MIC of analogue
How it was run: as §1

[7] = test system: Murine leukemia (L1210) cells; experiment: Cytostatic activity, L1210 cell proliferation; type: cell-based; conditions: mean ± SD of three experiments; highest concentration tested 250 µM; 2 days; read-out: Toxicity (IC50) L1210
How it was run: (§2)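 Coulter counter cell counts after 37°C culture with compound; IC50 = concentration giving 50% growth inhibition vs negative control. Incubation: L1210 2 d, CEM 3 d, HeLa 4 d. Suspension density before mixing with an equal volume of dilution: 300,000–500,000 cells/mL.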

[8] = test system: MRSA KS89; experiment: MIC, broth microdilution, MRSA KS89; type: cell-based, Staphylococcus aureus; conditions: for MIC-fold improvement vs. vancomycin: MRSA KS8, ratio of MIC of vancomycin and MIC of analogue; for MIC: Staphylococcus aureus MRSA KS8, read-out: MIC
How it was run: as §1

[9] = test system: E. faecalis VRE 6; experiment: MIC, broth microdilution, vancomycin-resistant E. faecalis VRE 6 (VanA); type: cell-based, Enterococcus faecalis; conditions: for MIC: Enterococcus faecalis VRE 6 (vancomycin-resistant), read-out: MIC; for MIC-fold improvement vs. vancomycin: VRE 6, ratio of MIC of vancomycin and MIC of analogue
How it was run: as §1

[10] = test system: human cervix carcinoma (HeLa) cells; experiment: Cytostatic activity, HeLa cell proliferation; type: cell-based; conditions: mean ± SD of three experiments; highest concentration tested 250 µM; 4 days; read-out: Toxicity (IC50) HeLa
How it was run: as §2

[11] = test system: MRSA KS2; experiment: MIC, broth microdilution, MRSA KS2; type: cell-based, Staphylococcus aureus; conditions: for MIC-fold improvement vs. vancomycin: MRSA KS2, ratio of MIC of vancomycin and MIC of analogue; for MIC: Staphylococcus aureus MRSA KS2, read-out: MIC
How it was run: as §1

[12] = test system: MRSA KS6; experiment: MIC, broth microdilution, MRSA KS6; type: cell-based, Staphylococcus aureus; conditions: for MIC-fold improvement vs. vancomycin: MRSA KS6, ratio of MIC of vancomycin and MIC of analogue; for MIC: Staphylococcus aureus MRSA KS6, read-out: MIC
How it was run: as §1

[13] = test system: L1210, CEM and HeLa cell lines; experiment: Cytostatic activity, average or summary over L1210, CEM and HeLa; type: cell-based; conditions: average of L1210, CEM and HeLa; read-out: Toxicity (IC50) Average
How it was run: as §2

[14] = test system: E. faecalis VRE 29; experiment: MIC, broth microdilution, vancomycin-resistant E. faecalis VRE 29 (VanA); type: cell-based, Enterococcus faecalis; conditions: for MIC: Enterococcus faecalis VRE 29 (vancomycin-resistant), read-out: MIC; for MIC-fold improvement vs. vancomycin: VRE 29, ratio of MIC of vancomycin and MIC of analogue
How it was run: as §1

[15] = test system: human T-lymphocyte (CEM) cells; experiment: Cytostatic activity, CEM cell proliferation; type: cell-based; conditions: mean ± SD of three experiments; highest concentration tested 250 µM; 3 days; read-out: Toxicity (IC50) CEM
How it was run: as §2

[16] = test system: S. aureus VRSA; experiment: MIC, broth microdilution, vancomycin-resistant S. aureus (VRSA); type: cell-based, Staphylococcus aureus; conditions: for MIC: Staphylococcus aureus VRSA, read-out: MIC; for MIC-fold improvement vs. vancomycin: VRSA, ratio of MIC of vancomycin and MIC of analogue
How it was run: as §1

Row | Structure (SMILES) | MIC [1] [µM] | MIC-fold improvement vs. vancomycin [1] | MIC-fold improvement vs. vancomycin [2] | MIC [2] [µM] | MIC [3] [µM] | MIC-fold improvement vs. vancomycin [3] | MIC [4] [µM] | MIC [5] [µM] | MIC-fold improvement vs. vancomycin [5] | MIC [6] [µM] | MIC-fold improvement vs. vancomycin [6] | IC50 [7] [µM] | MIC-fold improvement vs. vancomycin [8] | MIC [8] [µM] | MIC [9] [µM] | MIC-fold improvement vs. vancomycin [9] | IC50 [10] [µM] | MIC-fold improvement vs. vancomycin [11] | MIC [11] [µM] | MIC-fold improvement vs. vancomycin [12] | other results
1 | CNC(CC(C)C)C(=O)NC1C(=O)NC(CC(N)=O)C(=O)NC2C(=O)NC3C(=O)NC(C(=O)NC(C(=O)NCCNC(=O)C=Cc4ccc(NS(=O)(=O)c5ccc(Cl)cc5)cc4)c4cc(O)cc(O)c4-c4cc3ccc4O)C(O)c3ccc(c(Cl)c3)Oc3cc2cc(c3OC2OC(CO)C(O)C(O)C2OC2CC(C)(N)C(O)C(C)O2)Oc2ccc(cc2Cl)C1O (stereo not shown) [Vanc-62] | 1.56 (≈ 2.83 µg/mL) | 4 | 4 | 0.20 (≈ 0.362 µg/mL) | 25 (≈ 45.3 µg/mL) | 16 | 12.5 (≈ 22.6 µg/mL) | 0.39 (≈ 0.706 µg/mL) | 4 | 0.39 (≈ 0.706 µg/mL) | 2 | > 250 | 2 | 0.39 (≈ 0.706 µg/mL) | 3.13 (≈ 5.67 µg/mL) | 64 | 86 ± 42 | 4 | 0.20 (≈ 0.362 µg/mL) | 2 | MIC [12]: 0.39 µM (≈ 0.706 µg/mL); IC50 [13]: 195 µM; MIC [14]: 6.25 µM (≈ 11.3 µg/mL); MIC-fold improvement vs. vancomycin [14]: 64; IC50 [15]: ≥ 250 µM; MIC [16]: 0.78 µM (≈ 1.41 µg/mL); MIC-fold improvement vs. vancomycin [16]: 128
2 | CNC(CC(C)C)C(=O)NC1C(=O)NC(CC(N)=O)C(=O)NC2C(=O)NC3C(=O)NC(C(=O)NC(C(=O)NCCCNC(=O)c4ccc5cc(NS(=O)(=O)c6ccccc6)ccc5c4)c4cc(O)cc(O)c4-c4cc3ccc4O)C(O)c3ccc(c(Cl)c3)Oc3cc2cc(c3OC2OC(CO)C(O)C(O)C2OC2CC(C)(N)C(O)C(C)O2)Oc2ccc(cc2Cl)C1O (stereo not shown) [Vanc-63] | 0.78 (≈ 1.42 µg/mL) | 8 | 2 | 0.39 (≈ 0.708 µg/mL) | 25 (≈ 45.4 µg/mL) | 16 | 12.5 (≈ 22.7 µg/mL) | 0.39 (≈ 0.708 µg/mL) | 4 | 0.39 (≈ 0.708 µg/mL) | 2 | > 250 | 2 | 0.39 (≈ 0.708 µg/mL) | 3.13 (≈ 5.68 µg/mL) | 64 | 69 ± 74 | 2 | 0.39 (≈ 0.708 µg/mL) | 2 | MIC [12]: 0.39 µM (≈ 0.708 µg/mL); IC50 [13]: 190 µM; MIC [14]: 6.25 µM (≈ 11.3 µg/mL); MIC-fold improvement vs. vancomycin [14]: 64; IC50 [15]: ≥ 250 µM; MIC [16]: 0.78 µM (≈ 1.42 µg/mL); MIC-fold improvement vs. vancomycin [16]: 128
3 | CN[C@H](CC(C)C)C(=O)N[C@H]1C(=O)N[C@@H](CC(N)=O)C(=O)N[C@H]2C(=O)N[C@H]3C(=O)N[C@H](C(=O)N[C@H](C(=O)NCCNC(=O)/C=C/c4ccc(NS(=O)(=O)c5ccc(Cl)cc5Cl)cc4)c4cc(O)cc(O)c4-c4cc3ccc4O)[C@H](O)c3ccc(c(Cl)c3)Oc3cc2cc(c3O[C@@H]2O[C@H](CO)[C@@H](O)[C@H](O)[C@H]2O[C@H]2C[C@](C)(N)[C@H](O)[C@H](C)O2)Oc2ccc(cc2Cl)[C@H]1O [Vanc-64] | 0.78 (≈ 1.44 µg/mL) | 8 | 4 | 0.20 (≈ 0.369 µg/mL) | 12.5 (≈ 23.1 µg/mL) | 32 | 6.25 (≈ 11.5 µg/mL) | 0.39 (≈ 0.72 µg/mL) | 4 | 0.39 (≈ 0.72 µg/mL) | 2 | > 250 | 2 | 0.39 (≈ 0.72 µg/mL) | 3.13 (≈ 5.78 µg/mL) | 64 | 102 ± 39 | 4 | 0.20 (≈ 0.369 µg/mL) | 4 | MIC-fold improvement vs. vancomycin ([4]; VRE 37, ratio of MIC of vancomycin and MIC of analogue): 64; MIC [12]: 0.20 µM (≈ 0.369 µg/mL); IC50 [13]: 187 µM; MIC [14]: 6.25 µM (≈ 11.5 µg/mL); MIC-fold improvement vs. vancomycin [14]: 64; IC50 [15]: 210 ± 56 µM; MIC [16]: 0.39 µM (≈ 0.72 µg/mL); MIC-fold improvement vs. vancomycin [16]: 256
